In experiment [1] the target is T1, V1a (Homo sapiens, UniProt P37288). Briefly: In-vitro receptor binding assay (3H-arginine-8-vasopressin), V1a. A digest of the protocol: (§1)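 Radioligand is 3H-arginine-8-vasopressin, incubated with receptor for one hour at room temperature, then filtered on GF/C plates and counted by scintillation. Non-specific binding was defined with 1.25 μM vasopressin, and results are given as % inhibition.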

For the next experiment, the target named is human V2 receptor (Homo sapiens, UniProt P30518). Briefly: In-vitro receptor binding assay (3H-arginine-8-vasopressin), V2. The settings on record: for inhibition at 1 µM / inhibition at 10 µM / inhibition at 0.1 µM: read-out: Receptor Binding V2 (% Inh. @ concentration in μM). The essentials:
as §1

The target in experiment [2] is T1, V1a. The experiment is described as follows: V1a vasopressin receptor functional activity (inhibition of vasopressin-induced intracellular calcium, FLIPR, V1a-HEK cells). Format: cell-based. Set-up: expressed in transfected cells. To be noted: HEK-293 cells transfected with human V1a receptor; vasopressin challenge. Here is the method: [formula] (B) V1a Vasopressin Receptor Functional Activity
The V1a receptor is a G-protein coupled receptor, which upon activation triggers an increase in intracellular calcium mobilization. To evaluate compounds for their functional V1a receptor activity, HEK-293 cells were transfected with the human V1a receptor (V1a-HEK cells). HEK-293 cells were grown in DMEM (Dulbecco's modified Eagle Media) supplemented with 10% FBS and glutamine. HEK-cells were passed biweekly by trypsinization and seeded into 96 well plates at 33,000 cells per well. HEK-293 cells were transfected with human V1a receptor DNA using DMRIE-C reagent from Life Technologies. Stable lines were generated by selecting cells grown in culture media containing geneticin. After growing in Packard Clear-View black 96 well plates for 4-6 days, V1a-HEK cells were loaded with the calcium-sensitive fluorescence dye, FLUO-3 AM. Changes in cell fluorescence were quantitated using FLIPR (Fluorometric Imaging Plate Reader; Molecular Devices, Sunnyvale, Calif.). Test compounds were first added to the cells and the resulting changes in fluorescence measured to detect receptor agonistic activity. Five minutes later the cells were challenged with vasopressin to test compounds for their antagonistic activity. Receptor antagonists inhibit the ability of vasopressin to stimulate increases in intracellular fluorescence. IC50's were calculated.

The structures appear in SMILES notation.

human V2 receptor, sequence (P30518 whole entry): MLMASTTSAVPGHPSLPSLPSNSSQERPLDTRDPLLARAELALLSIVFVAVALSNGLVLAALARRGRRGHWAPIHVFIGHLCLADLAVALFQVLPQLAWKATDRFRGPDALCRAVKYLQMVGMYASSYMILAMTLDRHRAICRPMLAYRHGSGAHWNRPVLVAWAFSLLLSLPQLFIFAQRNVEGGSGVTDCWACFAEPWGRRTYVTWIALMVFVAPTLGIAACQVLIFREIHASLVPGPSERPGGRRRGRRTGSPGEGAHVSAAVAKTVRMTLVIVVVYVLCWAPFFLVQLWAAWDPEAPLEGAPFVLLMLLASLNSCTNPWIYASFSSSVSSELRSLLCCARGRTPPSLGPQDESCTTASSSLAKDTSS
T1 sequence (P37288 whole entry): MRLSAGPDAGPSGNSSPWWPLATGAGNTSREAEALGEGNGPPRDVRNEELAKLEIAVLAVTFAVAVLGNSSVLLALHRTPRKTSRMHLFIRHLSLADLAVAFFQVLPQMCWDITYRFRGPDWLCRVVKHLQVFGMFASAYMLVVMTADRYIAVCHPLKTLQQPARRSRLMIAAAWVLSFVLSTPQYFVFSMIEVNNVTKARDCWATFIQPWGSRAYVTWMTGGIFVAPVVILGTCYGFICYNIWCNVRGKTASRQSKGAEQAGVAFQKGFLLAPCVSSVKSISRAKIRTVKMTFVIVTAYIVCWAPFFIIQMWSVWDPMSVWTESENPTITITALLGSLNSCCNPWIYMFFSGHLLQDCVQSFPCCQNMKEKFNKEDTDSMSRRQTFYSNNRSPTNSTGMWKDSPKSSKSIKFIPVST

As to `COC(=O)CNCC1=CC2(CC1)CCN(C(=O)c1ccc(NC(=O)c3cc(F)ccc3C)cc1)c1ccccc1C2` (stereo not shown) [Compound 15], the IC50 on V1a [1] worked out at 0.007 µM; at human V2 receptor, 0.1 µM; on V1a [2] it was 0.135 µM.
Take `Cc1cc(F)ccc1C(=O)Nc1ccc(C(=O)N2CCC3(C=CCCC3)Cc3ccccc32)cc1` (stereo not shown) [Compound 100]: the IC50 on V1a [1] came out at 0.008 µM; at human V2 receptor, 0.067 µM; at V1a [2], 0.05 µM.
In the same order, the values of `Cc1ccc(F)cc1C(=O)Nc1ccc(C(=O)N2CCC3(C=C(C(=O)NCCN(C)C)CC3)Cc3ccccc32)cc1` (stereo not shown) [Compound 13] are 0.005 µM, 0.018 µM and 0.07 µM.
`O=C(Nc1ccc(C(=O)N2CCC3(C=C(CO)CC3)Cc3ccccc32)cc1)c1ccccc1-c1ccccc1` (stereo not shown) [Compound 1, 4-(2-Phenylbenzoyl-4-aminobenzoyl)-3′-(hydroxymethyl)-4-aza-[6,4]-spiro-[5,6]-benzoundec-2′-ene]: the IC50 at V1a [1] was 0.009 µM; at human V2 receptor it was 0.018 µM; at V1a [2] it was under 0.01 µM.
Consider `COC(=O)c1ccc(C(=O)N2CCC3(C=CCCC3)Cc3ccccc32)cc1` (stereo not shown) [Compound 54, 4-(4-Carbomethoxybenzoyl)-4-aza-[6,5]-spiro-[5,6]-benzododec-2′-ene], for which the IC50 at V1a [1] came out at 0.33 µM; at human V2 receptor, 10 µM; at V1a [2], 0.067 µM.
For the molecule `N#Cc1ccc(C(=O)N2CCC3(C=CCCC3)Cc3ccccc32)cc1` (stereo not shown) [Compound 33], the IC50 on V1a [1] was 0.13 µM; at V1a [2], over 1 µM.
For `O=C(NCCO)C1=CC2(CC1)CCN(C(=O)c1ccc(NC(=O)c3ccccc3-c3ccccc3)cc1)c1ccccc1C2` (stereo not shown) [Compound 6], the IC50 at V1a [1] worked out at 0.006 µM; at human V2 receptor it was 0.011 µM; at V1a [2], 0.005 µM.
`Cc1cc(F)ccc1C(=O)Nc1ccc(C(=O)N2CCC3(C=CCCC3)Cc3ccccc32)cc1` (stereo not shown) [Compound 99]: the IC50 came to 0.041 µM at V1a [1] and 0.08 µM on V1a [2]. In addition, the inhibition at 1 µM on human V2 receptor (@ 1 μM) was 35%.
For the molecule `O=C(Nc1ccc(C(=O)N2CCC3(C=CCCC3)Cc3ccccc32)cc1)c1ccccc1F` (stereo not shown) [Compound 101, 4-(2-Fluorobenzoyl-4-aminobenzoyl)-4-aza-[6,5]-spiro-[5,6]-benzododec-2′-ene], the IC50 at V1a [1] was 0.01 µM; on human V2 receptor, 0.55 µM; on V1a [2] it was 0.06 µM.
In the case of `Cc1ccc(F)cc1C(=O)Nc1ccc(C(=O)N2CCC3(C=C(C(=O)NCCCN(C)C)CC3)Cc3ccccc32)cc1` (stereo not shown) [Compound 14], the IC50 amounted to 0.005 µM at V1a [1], 0.023 µM on human V2 receptor and 0.059 µM on V1a [2].
The like results for `CNCC1=CC2(CC1)CCN(C(=O)c1ccc(NC(=O)c3ccccc3-c3ccccc3)cc1)c1ccccc1C2` (stereo not shown) [Compound 3, 4-(2-Phenylbenzoyl-4-aminobenzoyl)-3′-(methylaminomethyl)-4-aza-[6,4]-spiro-[5,6]-benzoundec-2′-ene] were, in that order, 0.009 µM, 0.018 µM and under 0.01 µM.
In the same order, the values of `CC(=O)N(C)CC1=CC2(CC1)CCN(C(=O)c1ccc(NC(=O)c3ccccc3-c3ccccc3)cc1)c1ccccc1C2` (stereo not shown) [Compound 5, 4-(2-Phenylbenzoyl-4-aminobenzoyl)-3′-(N-methyl-N-acetylaminomethyl)-4-aza-[6,4]-spiro-[5,6]-benzoundec-2′-ene] are 0.02 µM, 0.022 µM and under 0.01 µM.
In the case of `O=C(c1ccc(Cl)c(Cl)c1)N1CCC2(C=CCCC2)Cc2ccccc21` (stereo not shown) [Compound 48], the inhibition at 10 µM on V1a [1] (@ 10 μM, read-out: Receptor Binding V1a (% Inh. @ concentration in μM)) was 33%; at human V2 receptor (@ 10 μM), 16%. Besides, the IC50 at V1a [2] was over 1 µM.
On to `O=C(NCCN1CCOCC1)C1=CC2(CC1)CCN(C(=O)c1ccc(NC(=O)c3ccccc3F)cc1)c1ccccc1C2` (stereo not shown) [Compound 17], for which the IC50 worked out at 0.014 µM at V1a [1] and 0.227 µM at V1a [2]. Also, at human V2 receptor, the inhibition at 0.1 µM was 18%.
`O=C(Nc1ccc(C(=O)N2CCC3(C=CCCC3)Cc3ccccc32)c(Cl)c1)c1ccccc1F` (stereo not shown) [Compound 110]: the IC50 on V1a [1] was 0.9 µM; on human V2 receptor, 1 µM; on V1a [2] it was 2.57 µM.
As for `O=C(O)C1=CC2(CC1)CCN(C(=O)c1ccc(NC(=O)c3ccccc3-c3ccccc3)cc1)c1ccccc1C2` (stereo not shown) [Compound 4, 4-(2-Phenylbenzoyl-4-aminobenzoyl)-3′ (carboxyl)-4-aza-[6,4]-spiro-[5,6]-benzoundec-2′-ene], the IC50 at V1a [1] was found to be 0.037 µM; at human V2 receptor it was 0.014 µM; at V1a [2], 0.02 µM.
In the same order, the values of `O=C(Nc1ccccc1)c1ccc(C(=O)N2CCCC3(C=CCCC3)c3ccccc32)cc1` (stereo not shown) [Compound 27] are 0.1 µM, 0.27 µM and 0.008 µM.
`CCNc1ccc(C(=O)N2CCC3(CCCCC3)Cc3ccccc32)cc1` [Compound 26]: the IC50 at V1a [1] turned out to be 0.16 µM; on human V2 receptor, 10 µM; on V1a [2], 0.105 µM.
As for `CCCCOc1ccc(C(=O)N2CCC3(C=CCCC3)Cc3ccccc32)cc1` (stereo not shown) [Compound 53], the results for the IC50 on V1a [1], on human V2 receptor and on V1a [2] were 0.06 µM, 8 µM and 0.104 µM, respectively.
Take `O=C(NCCN1CCCCC1)C1=CC2(CC1)CCN(C(=O)c1ccc(NC(=O)c3ccccc3F)cc1)c1ccccc1C2` (stereo not shown) [Compound 18]: the IC50 on V1a [1] came to 0.007 µM; on V1a [2], 0.95 µM. In addition, the inhibition at 0.1 µM on human V2 receptor was 23%.
In the case of `Cc1ccccc1C(=O)Nc1ccc(C(=O)N2CCC3(C=CCCC3)Cc3ccccc32)cc1` (stereo not shown) [Compound 69], the IC50 at V1a [1] was determined as 0.01 µM; at human V2 receptor, 0.07 µM; on V1a [2] it was 0.14 µM.
In turn, `COc1ccc(C(=O)N2CCC3(C=CCCC3)Cc3ccccc32)cc1OC` (stereo not shown) [Compound 75] had an IC50 on V1a [1] of 0.07 µM. Moreover, the inhibition at 1 µM on human V2 receptor (@ 1 μM) was 1%.
`Nc1ccc(C(=O)Nc2ccc(C(=O)N3CCC4(C=CCCC4)Cc4ccccc43)cc2)cc1` (stereo not shown) [Compound 70] came in with an IC50 on V1a [1] of 0.01 µM. The “Receptor Binding V2 (% Inh. @ concentration in μM)” value at human V2 receptor (@ 1 μM) is on record as 21% @ 1.
For `O=C(c1ccc(C(F)(F)F)cc1)N1CCC2(C=CCCC2)Cc2ccccc21` (stereo not shown) [Compound 38], on V1a [1], the IC50 worked out at 1.6 µM. The “Receptor Binding V2 (% Inh. @ concentration in μM)” value at human V2 receptor (@ 10 μM) is listed as 35% @ 10.
In turn, `O=C(c1ccc([N+](=O)[O-])cc1)N1CCC2(C=CCCC2)Cc2ccccc21` (stereo not shown) [Compound 49, 4-(4-Nitrobenzoyl)-4-aza-[6,5]-spiro-[5,6]-benzododec-2′-ene] displayed an IC50 at V1a [1] of 0.38 µM. For the same molecule, on human V2 receptor (@ 10 μM), the inhibition at 10 µM amounted to 30%.
At V1a [1], `CC(=O)c1ccn(-c2ccc(C(=O)N3CCC4(C=CCCC4)Cc4ccccc43)cc2F)c1` (stereo not shown) [Compound 177] displayed an IC50 of 0.044 µM. Moreover, the inhibition at 1 µM at human V2 receptor (@ 1 μM) stood at 30%.
Regarding `O=C(Nc1ccc(C(=O)N2CCC3(C=CCCC3)Cc3ccccc32)c(Cl)c1)c1ccccc1-c1ccccc1` (stereo not shown) [Compound 118], the inhibition at 0.1 µM at V1a [1] (@ 0.1 μM, read-out: Receptor Binding V1a (% Inh. @ concentration in μM)) was found to be 40%. The same molecule registered an IC50 at human V2 receptor of 0.085 µM.
`Cc1ccccc1C(=O)Nc1ccc(C(=O)N2CCC3(C=CCCC3)Cc3ccccc32)c(Cl)c1` (stereo not shown) [Compound 112]: the IC50 on V1a [1] came to 0.062 µM; on human V2 receptor, 0.08 µM.
In the case of `COc1ccc(C(=O)N2CCC3(C=CCCC3)Cc3ccccc32)cc1` (stereo not shown) [Compound 37], the IC50 amounted to 0.11 µM at V1a [1] and 0.096 µM on V1a [2]. Also, on human V2 receptor (@ 10 μM), the “Receptor Binding V2 (% Inh. @ concentration in μM)” value is recorded as 37% @ 10.
In the case of `O=C(Nc1ccc(C(=O)N2CCC3(C=CCCC3)Cc3ccccc32)cc1)c1ccccc1-c1ccccc1` (stereo not shown) [Compound 66, 4-(2-Phenylbenzoyl-4-aminobenzoyl)-4-aza-[6,5]-spiro-[5,6]-benzododec-2′-ene], the IC50 was determined as 0.83 µM on V1a [1], 0.19 µM on human V2 receptor and 0.025 µM on V1a [2].

For the origin of these results see patent US7691844B2, “Nonpeptide substituted spirobenzoazepines as vasopressin antagonists” (Ortho-McNeil Pharmaceutical, Inc., priority 2000, dated 2010).
